{
  "source": "patent US9045781B2",
  "about": "“Process for the production of optically-active esters of lactic acid and lactyllactic acid” (Plaxica Limited, priority 2011, dated 2015)",
  "source_text": "The solubility of lactide in different solvents was investigated.",
  "data": [
    {"smiles": "CC1OC(=O)C(C)OC1=O", "note": "(racemic) [lactide, 3,6-dimethyl-1,4-dioxan-2,5-dione]", "values": [
      {"measurement": "Solubility of lactide in a n-BuOH/acetone system", "result": 1.44, "unit": "g"},
      {"measurement": "Solubility of lactide in different solvents, rank order", "result": "Acetone>>n-BuOH>t-BuOH"}
    ]}
  ]
}
